This is an account of results in patent publication US9107396B2, “Stabilized synthetic brood pheromone and race-specific ratios of components for manipulating the behavior and physiology of honey bees” (OMS Investments, Inc., priority 2006, dated 2015).

This data set in a line: Chemical stability of simplified brood pheromone ester blends exposed to air, capillary gas chromatography. It counts as physicochemical. The settings on record: for time for which the component remained intact: with antioxidant stabilizer tertiary-butylhydroquinone; for proportional composition of the total blend at start: two-week test; for percentage composition at start / percentage composition after 72 weeks: unstabilized five-component ethyl ester blend; for percentage composition at start: 72-week test. As to the method:
Short-term and long-term stability studies were conducted, with simplified blends of potentially unstable brood pheromone components mixed in approximately the same proportions as in Example 1. Short-term evaluation for a two-week duration was done on blends of methyl oleate, methyl linoleate and methyl linolenate, and ethyl oleate, ethyl linoleate and ethyl linolenate, each with and without tertiary-butylhydroquinone. Twenty-week tests were done with identical blends as for the two-week experiments, but 72-week tests had methyl and ethyl palmitate and stearate added in the appropriate proportions to their respective blends. Approximately 250 mg of a blend was placed in a 4 mL (15×45 mm) plastic vial (Chromatographic Specialties) fitted with a diffusion insert screw cap (Agilent Technologies) with a 1 mm diameter hole to allow air circulation over the sample. All blends were continuously held at a constant temperature of 30° C.
For analysis by capillary gas chromatography, approximately 1 mg of a blend was dissolved in 1 mL of diethyl ether, and a 1 μL aliquot of each extract was analyzed. Analyses were done at time zero and after the given duration of exposure to air at 30° C., using a Hewlett Packard HP5890 gas chromatograph equipped with a flame ionization detector and a 30 m long BPX-70 capillary column (J&W Scientific). The injector and detector temperatures were 260° C. and 285° C., respectively. The temperature program was 80° C. rising at 5° C. per min for 24 min to 200° C., and then rising at 20° C. per min for 3 min to 260° C.
Two-week results are given for methyl and ethyl esters (FIGS. 1 and 2), while long-term 20-week and 72-week results are given for only ethyl esters (FIGS. 3 and 4). Long-term results for methyl esters were virtually identical to those for the ethyl esters.

The mark [1] stands for this setting: unstabilized blend, after two weeks exposure to air.
[2] abbreviates: unstabilized blend, before exposure.

Regarding `CCCCC/C=C\C/C=C\CCCCCCCC(=O)OCC` [ethyl linoleate], the “time for which the component remained intact” value was determined as 72 weeks. In addition, under “2 weeks”, the “decrease in amount of component in the unstabilized blend” value (“decrease in amount of component” for short) is reported as 74%. Besides, the “component remaining in the unstabilized blend after 20 weeks” value (3360 h) was “no ethyl linoleate”. In addition, the “component remaining in the unstabilized blend after 72 weeks” value (12096 h) is given as “complete breakdown”.

As to `CC/C=C\C/C=C\C/C=C\CCCCCCCC(=O)OCC` [ethyl linolenate], the “time for which the component remained intact” value came to 72 weeks. Besides, the “decrease in amount of component” value under setting [1] amounted to 94%. Moreover, the “component remaining in the unstabilized blend after 20 weeks” value (unstabilized ethyl ester blend, 20 weeks) is given as “no ethyl linolenate remained”. Also, the “component remaining in the unstabilized blend after 72 weeks” value (unstabilized ethyl ester blend, 72 weeks) is listed as “complete breakdown”.

On to `CCCCCCCC/C=C\CCCCCCCC(=O)OCC` [ethyl oleate], for which the “percentage composition after 72 weeks” value was determined as 10% and the “time for which the component remained intact” value amounted to 72 weeks. The “proportional composition of the total blend after two weeks” value under setting [1] is given as 66%. For the same compound, the “proportional composition of the total blend at start” value under setting [2] turned out to be 40%. In addition, the “proportion of the total blend at start” value (unstabilized ethyl ester blend, 20-week test, before exposure) is 37%. Also, the “proportion of the total blend after 20 weeks” value (unstabilized ethyl ester blend, after 20 weeks) is on record as 43%. Also, where the note is “before exposure”, the “percentage composition at start” value worked out at 24%.

`CCCCCCCCCCCCCCCC(=O)OCC` [ethyl palmitate]: the “percentage composition after 72 weeks” value is given as 20%. Moreover, the “percentage composition at start” value (before exposure) is 8%.

Regarding `CCCCCCCCCCCCCCCCCC(=O)OCC` [ethyl stearate], the “percentage composition after 72 weeks” value turned out to be 57%. In addition, for the setting “before exposure”, the “percentage composition at start” value worked out at 23%.

As to `CCCCC/C=C\C/C=C\CCCCCCCC(=O)OC` [methyl linoleate], the “time for which the component remained intact” value is given as 72 weeks. Also, where the note is “2 weeks”, the “decrease in amount of component” value amounted to 85%.

With `CC/C=C\C/C=C\C/C=C\CCCCCCCC(=O)OC` [methyl linolenate], the “time for which the component remained intact” value was 72 weeks. Also, the “decrease in amount of component” value (2 weeks) is 90%.

For `CCCCCCCC/C=C\CCCCCCCC(=O)OC` [methyl oleate], the “time for which the component remained intact” value was 72 weeks. Also, the “proportional composition of the total blend after two weeks” value under setting [1] is 82%. For the same compound, the “proportional composition of the total blend at start” value under setting [2] is recorded as 48%.
